Measurements as given in US10905657B2, “Solid dispersions of Coenzyme Q10” (Indena S.P.A., priority 2015, dated 2021).

Experiment: Pharmacokinetic study in rats after single oral dose
Details: male, Sprague-Dawley, rat, in vivo, 50 mg/kg, intragastric gavage, single dose 50 mg Coenzyme Q10/Kg, suspended in 1% carboxymethyl cellulose, plasma
Experimental: Pharmacokinetic parameters (Tmax, Cmax, absolute bioavailability) were determined in rats after the oral administration of a single dose of Coenzyme Q10 as crystalline powder and as solid dispersion with phospholipids.
Male Sprague-Dawley rats, weighting 300-350 g were used for the pharmacokinetic experiment. Rats were fasted 16 hours before administration with free access to water.
Coenzyme Q10 as crystalline powder and as solid dispersion with phospholipids were suspended in 1% carboxymethyl cellulose water suspension and administered by intragastric gavage as a single dose of 50 mg of Coenzyme Q10/Kg.
Blood samples were collected from tail vein after 0.5-1.0-2.0-4.0-8.0-12.0 and 24 hours after administration.
Plasma was obtained from blood samples by centrifugation at 5.000×g for 15 minutes and kept frozen (−20° C.) until analysis. After protein sedimentation, Coenzyme Q10 was extracted by plasma samples with n-hexane; the extraction step with hexane was repeated for three times. The hexane phases, separated by centrifugation, were collected and the solvent was removed by evaporation under nitrogen. The residue was dissolved in 2-propanol for HPLC/MS analysis at 275 nm, using internal standard method for Coenzyme Q10 quantification.
The following pharmacokinetic parameters were calculated: […]

COC1=C(OC)C(=O)C(C/C=C(\C)CC/C=C(\C)CC/C=C(\C)CC/C=C(\C)CC/C=C(\C)CC/C=C(\C)CC/C=C(\C)CC/C=C(\C)CC/C=C(\C)CCC=C(C)C)=C(C)C1=O [Crystalline Coenzyme Q10, Coenzyme Q10]
Cmax: 230 ng/mL | Tmax: 3.8 h | AUC(0-t) (0-24 hours): 4100 ng·h/mL
